In patent publication US7872045B2, “Combination therapy for glaucoma treatment” (Allergan, Inc., priority 2001, dated 2011):

Tests used:
[1] = biological target: T1, human EP3 receptor (hEP3, D isoform) (Homo sapiens, UniProt P43115); test: Radioligand binding competition vs [3H]PGE2, human recombinant EP3 receptor; conditions: [3H]PGE2 competition, plasma membranes of transfected cells (COS-7 transient; HEK-293 also named), 60 min 25° C.
T1 construct: expressed in transfected cells; host or cells: COS-7 cells, transient transfection with pcDNA3 (lipofectin); plasma membrane fraction
T1 sequence (P43115 1-374 isoform P43115-4): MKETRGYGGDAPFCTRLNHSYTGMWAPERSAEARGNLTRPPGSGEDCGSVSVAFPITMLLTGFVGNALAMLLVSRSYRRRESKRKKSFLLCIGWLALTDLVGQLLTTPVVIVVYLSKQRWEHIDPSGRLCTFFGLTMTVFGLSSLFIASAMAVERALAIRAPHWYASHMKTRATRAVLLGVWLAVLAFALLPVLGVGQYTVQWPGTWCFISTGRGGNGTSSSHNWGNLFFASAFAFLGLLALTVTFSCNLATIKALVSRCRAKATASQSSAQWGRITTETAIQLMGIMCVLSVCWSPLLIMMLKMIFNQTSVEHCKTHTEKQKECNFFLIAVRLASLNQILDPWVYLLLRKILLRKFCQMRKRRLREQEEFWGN
Protocol: (§1) HEK-293 cells stably expressing the human or feline FP receptor, or EP1, EP2, EP3, or EP4 receptors were washed with TME buffer, scraped from the bottom of the flasks, and homogenized for 30 sec using a Brinkman PT 10/35 polytron. TME buffer was added to achieve a final 40 ml volume in the centrifuge tubes (the composition of TME is […]; ION HCl is added to achieve a pH of 7.4).
(§2) [^3H-] PGE2 (5 nM; specific activity 180 Ci mmol) was used as the radioligand for EP receptors. Binding studies employing EP1, EP2, EP3, EP4 were performed in duplicate in at least three separate experiments. A 200 μl assay volume was used. Incubations were for 60 min at 25° C. and were terminated by the addition of 4 ml of ice-cold 50 mM TRIS-HCl, followed by rapid filtration through Whatman GF/B filters and three additional 4 ml washes in a cell harvester (Brandel). Non-specific binding determined with 10^−5M of unlabeled PGE2,.
Human Recombinant EP3 and TP Receptors: Transient Transfectants.
Plasmids encoding the human EP3 (D isoform) or TP receptor were prepared by cloning the respective coding sequences into a pcDNA3 vector (Invitrogen). COS-7 cells were transfected with pcDNA3 containing cDNA encoding the EP3 or TP receptor by employing the lipofectin method, according to the manufacturers instructions (Gibco). For radioligand binding studies, cells were harvested two days after transfection.
Radioligand binding studies on plasma membrane fractions prepared from cells were performed as follows. Cells washed with TME buffer were scraped from the bottom of the plates and homogenized for 30 sec using a Brinkman PT 10/35 polytron. TME buffer was added as necessary to achieve a 40 ml volume in the centrifuge tubes. TME is comprised of 50 mM TRIS base, 10 mM MgCl2, 1 mM EDTA; pH 7.4 is achieved by adding 1 N HCl. The cell homogenate was centrifuged at 19,000 rpm for 20-25 min at 4° C. using a Beckman Ti-60 or T ? -70 rotor. The pellet was then resuspended in TME buffer to provide a final protein concentration of 1 mg/ml, as determined by Bio-Rad assay. Radioligand binding assays were performed in a 100 μl or 200 μl volume.
The binding of [^3H] PGE2 (specific activity 165 Ci/mmol) was determined in duplicate and, in at least 3 separate experiments. Incubations were for 60 min at 25° C. and were terminated by the addition of 4 ml of ice-cold 50 mM TRIS-HCl followed by rapid filtration through Whatman GF/B filters and three additional 4 ml washes in a cell harvester (Brandel). Competition studies were performed using a final concentration of 2.5 or 5 nM [H] PGE2 and non-specific binding was determined with 10^−5 M unlabelled PGE2.

[2] = biological target: T2, human EP4 receptor (hEP4) (Homo sapiens, UniProt P35408); test: Radioligand binding competition vs [3H]PGE2, human recombinant EP4 receptor; conditions: [3H]PGE2 competition, plasma membranes of HEK-293 stable transfectants, 60 min 25° C.
T2 construct: expressed in transfected cells; plasma membrane fraction
T2 sequence (P35408 whole entry): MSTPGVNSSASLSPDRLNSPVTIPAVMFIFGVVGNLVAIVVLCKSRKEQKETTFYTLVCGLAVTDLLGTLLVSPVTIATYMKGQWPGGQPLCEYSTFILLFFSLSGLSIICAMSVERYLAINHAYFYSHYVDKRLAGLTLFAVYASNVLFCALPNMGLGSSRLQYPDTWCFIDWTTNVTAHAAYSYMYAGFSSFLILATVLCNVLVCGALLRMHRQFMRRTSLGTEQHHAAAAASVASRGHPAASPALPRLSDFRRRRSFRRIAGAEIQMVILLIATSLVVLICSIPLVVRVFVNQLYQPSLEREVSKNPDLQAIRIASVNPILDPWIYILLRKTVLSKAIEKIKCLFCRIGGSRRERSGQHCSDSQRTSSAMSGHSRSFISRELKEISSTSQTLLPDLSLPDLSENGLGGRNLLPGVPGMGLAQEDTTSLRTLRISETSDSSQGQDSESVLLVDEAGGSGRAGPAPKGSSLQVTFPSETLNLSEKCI
Protocol: Human Recombinant EP1, EP2, EP4, and FP Receptors: Stable Transfectants
as §1
The cell homogenate was centrifuged at 19000 r.p.m. for 20 min at 4° C. using a Beckman Ti-60 rotor. The resultant pellet was resuspended in TME buffer to give a final 1 mg/ml protein concentration, as determined by Biorad assay. Radioligand binding competition assays vs. [^3H-]17 -phenyl PGF2α (5 nM) were performed in a 100 μl volume for 60 min. Binding reactions were started by adding plasma membrane fraction. The reaction was terminated by the addition of 4 ml ice-cold TRIS-HCl buffer and rapid filtration through glass fiber GF/B filters using a Brandel cell harvester. The filters were washed 3 times with ice-cold buffer and oven dried for one hour. Non-specific binding was determined with 10 uM unlabeled 17 -phenyl PGF2α.
as §2
Plasmids encoding the human EP1, EP2, EP4, and FP receptors were prepared by cloning the respective coding sequences into the eukaryotic expression vector pCEP4 (Invitrogen). The pCEP4 vector contains an Epstein Barr virus (EBV) origin of replication, which permits episomal replication in primate cell lines expressing EBV nuclear antigen (EBNA-1). Similarly, competitive experiments were caried out using [3H]17-phenylPGF2α at 5 nM in the presence of test ligands at various concentrations. Also non-specific binding was, determined in the presence of excess unlabeled PGF2α (10^−5 M).
It also contains a hygromycin resistance gene that is used for eukaryotic selection. The cells employed for stable transfection were human embryonic kidney cells (HEK-293) that were transfected with and express the EBNA-1 protein. These HEK-293-EBNA cells (Invitrogen) were grown in medium containing Geneticin (G418) to maintain expression of the EBNA-1 protein. HEK-293 cells were grown in DMEM with 10% fetal bovine serum (FBS), 250 μg ml G418 (Life Technologies) and 200 μg ml^−1 gentamicin or penicillin/streptomycin.
For transfection, the cells were grown to 50-60% confluency on 10 cm plates. The plasmid pCEP4 incorporating cDNA inserts for the respective human prostanoid receptor (20 μg) was added to 500 μl of 250 mM CaCl2. HEPES buffered saline ×2 (2×HBS, 280 mM NaCl, 20 mM HEPES acid, 1.5 mM Na2 HPO4, pH 7.05-7.12) was then added dropwise to a total of […], with continuous vortexing at room temperature. After 30 min, 9 ml DMEM were added to the mixture. The DNA/DMEM/calcium phosphate mixture was then added to the cells, which had been previously rinsed with 10 ml PBS. The cells were then incubated for 5 hr at 37° C. in humidified 95% air/5% CO2. The calcium phosphate solution was then removed and the cells were treated with 10% glycerol in DMEM for 2 min. The glycerol solution was then replaced by DMEM with 10% FBS. The cells were incubated overnight and the medium was replaced by DMEM/10% FBS containing 250 μg ml^−1 G418 and penicillin/streptomycin. The following day hygromycin B was added to a final concentration of 200 μg ml^−1. […]

Row | SMILES | IC50 [1] | IC50 [2]
1 | COC(=O)CSCCCS[C@H]1C(=O)C[C@@H](O)[C@@H]1/C=C/C(O)Cc1ccc2ccccc2c1 (single isomer, unassigned) [Example 21H] | > 10000 nM | 100 nM
2 | COC(=O)CSCCCS[C@H]1C(=O)C[C@@H](O)[C@@H]1/C=C/C(O)Cc1ccc2ccccc2c1 (single isomer, unassigned) [Example 21L] | > 10000 nM | 13 nM
3 | O=C(O)CSCCCS[C@H]1C(=O)C[C@@H](O)[C@@H]1/C=C/C(O)Cc1ccc2ccccc2c1 (single isomer, unassigned) [Example 22H] | > 10000 nM | 32 nM
4 | COC(=O)CSCCCS[C@H]1C(=O)C[C@@H](O)[C@@H]1/C=C/C(O)Cc1csc2ccccc12 (single isomer, unassigned) [Example 24H] | – | 200 nM
5 | COC(=O)CSCCCS[C@H]1C(=O)C[C@@H](O)[C@@H]1/C=C/C(C)(O)CCc1ccc2ccccc2c1 (single isomer, unassigned) [Example 27H] | – | 500 nM
6 | COC(=O)CSCCCS[C@H]1C(=O)C[C@@H](O)[C@@H]1/C=C/C(C)(O)CCc1ccc2ccccc2c1 (single isomer, unassigned) [Example 27L] | – | 3400 nM
7 | COC(=O)CSCCCS[C@H]1C(=O)C[C@@H](O)[C@@H]1/C=C/C(O)CCc1ccc2ccccc2c1 (stereo partly drawn) [Example 9H, {3-[(1R,2S,3R)-3-Hydroxy-2-((S)-(E)-3-(hydroxy)-5-(naphthyl)pent-1-enyl)-5-oxocyclopentylsulfanyl]propylsulfanyl}acetic acid methyl ester] | – | 40 nM
8 | COC(=O)CSCCCS[C@H]1C(=O)C[C@@H](O)[C@@H]1/C=C/C(O)CCc1ccc2ccccc2c1 (stereo partly drawn) [Example 9L, {3-[(1R,2S,3R)-3-Hydroxy-2-((S)-(E)-3-(hydroxy)-5-(naphthyl)pent-1-enyl)-5-oxocyclopentylsulfanyl]propylsulfanyl}acetic acid methyl ester] | > 10000 nM | –
9 | COC(=O)CSCCCS[C@H]1C(=O)C[C@@H](O)[C@@H]1/C=C/[C@@H](O)CCc1cc2ccccc2s1 [Example 13H, {3-[(1R,2S,3R)-3-Hydroxy-2-((S)-(E)-3-hydroxy-5-(benzothienyl)pent-1-enyl)-5-oxocyclopentylsulfanyl]propylsulfanyl}acetic acid methyl ester] | – | 91 nM
10 | CC(O)(/C=C/[C@H]1[C@H](O)CC(=O)[C@@H]1SCCCSCC(=O)O)CCc1ccc2ccccc2c1 (stereo partly drawn) [Example 28H, {3-[(1R,2S,3R)-3-Hydroxy-2-((S)-(E)-3-(hydroxy)-3-(methyl)-5-(naphthyl)pent-1-enyl)-5-oxocyclopentylsulfanyl]propylsulfanyl}acetic acid] | > 10000 nM | 1700 nM
11 | CC(O)(/C=C/[C@H]1[C@H](O)CC(=O)[C@@H]1SCCCSCC(=O)O)CCc1ccc2ccccc2c1 (stereo partly drawn) [Example 28L, {3-[(1R,2S,3R)-3-Hydroxy-2-((S)-(E)-3-(hydroxy)-3-(methyl)-5-(naphthyl)pent-1-enyl)-5-oxocyclopentylsulfanyl]propylsulfanyl}acetic acid] | > 10000 nM | 1500 nM
12 | COC(=O)CSCCCS[C@H]1C(=O)C[C@@H](O)[C@@H]1/C=C/C(C)(O)Cc1ccc2ccccc2c1 (stereo partly drawn) [Example 30H, {3-[(1R,2S,3R)-3-Hydroxy-2-((E)-3-hydroxy-3-methyl-4-naphthalen-2-yl-but-1-enyl)-5-oxocyclopentylsulfanyl]propylsulfanyl}acetic acid methyl ester] | > 10000 nM | 3100 nM
13 | COC(=O)CSCCCS[C@H]1C(=O)C[C@@H](O)[C@@H]1/C=C/C(C)(O)Cc1ccc2ccccc2c1 (stereo partly drawn) [Example 30L, {3-[(1R,2S,3R)-3-Hydroxy-2-((E)-3-hydroxy-3-methyl-4-naphthalen-2-yl-but-1-enyl)-5-oxocyclopentylsulfanyl]propylsulfanyl}acetic acid methyl ester] | – | 3200 nM
14 | CC(O)(/C=C/[C@H]1[C@H](O)CC(=O)[C@@H]1SCCCSCC(=O)O)Cc1ccc2ccccc2c1 (stereo partly drawn) [Example 31H, {3-[(1R,2S,3R)-3-Hydroxy-2-((E)-3-hydroxy-3-methyl-4-naphthalen-2-yl-but-1-enyl)-5-oxocyclopentylsulfanyl]propylsulfanyl}acetic acid] | 8100 nM | 300 nM
15 | CC(O)(/C=C/[C@H]1[C@H](O)CC(=O)[C@@H]1SCCCSCC(=O)O)Cc1ccc2ccccc2c1 (stereo partly drawn) [Example 31L, {3-[(1R,2S,3R)-3-Hydroxy-2-((E)-3-hydroxy-3-methyl-4-naphthalen-2-yl-but-1-enyl)-5-oxocyclopentylsulfanyl]propylsulfanyl}acetic acid] | 9300 nM | 900 nM
16 | COC(=O)CSCCCS[C@H]1C(=O)C[C@@H](O)[C@@H]1/C=C/[C@@](C)(O)CCc1cc2ccccc2s1 [Example 33H, {3-[(1R,2S,3R)-3-Hydroxy-2-((S)-(E)-3-(hydroxy)-3-(methyl)-5-(benzothienyl)pent-1-enyl)-5-oxocyclopentylsulfanyl]propylsulfanyl}acetic acid methyl ester] | – | 200 nM
17 | COC(=O)CSCCCS[C@H]1C(=O)C[C@@H](O)[C@@H]1/C=C/[C@@](C)(O)CCc1cc2ccccc2s1 [Example 33L, {3-[(1R,2S,3R)-3-Hydroxy-2-((S)-(E)-3-(hydroxy)-3-(methyl)-5-(benzothienyl)pent-1-enyl)-5-oxocyclopentylsulfanyl]propylsulfanyl}acetic acid methyl ester] | – | 300 nM
